Paper PMC11314410, “Synthesis and Anti-Trypanosoma cruzi Activity of New Pyrazole-Thiadiazole Scaffolds” (Molecules, 2024)
Read-outs that look alike come from different tables or passages of the source.

Legend:
[1] = tested on: Trypomastigotes of T. cruzi (Dm28c-Luc); assay: microbe, parasite or virus in culture; type: cell-based, Trypanosoma cruzi; conditions: for IC50 / IC90: Trypanosoma cruzi, Dm28c-Luc, 24 h treatment; for IC50: 24 h, mean ± SD, read-out: Anti-T. cruzi Activity Trypomastigotes IC50; for IC90: read-out: Anti-T. cruzi Activity Trypomastigotes IC90
Method: (§1) Genetically modified T. cruzi parasites, of clone Dm28c (TcI) expressing the firefly luciferase enzyme gene (Dm28c-Luc), were kindly provided by Dr. Cristina Henriques. T. cruzi Dm28c-Luc was maintained in a Vero cell cultivated in RPMI 1640 medium supplemented with 10% FBS. At 4-day post-infection (dpi), trypomastigotes, released in the cell culture supernatant, were harvested, followed by sedimentation (4000 rpm/20 min/4 °C) and quantification in a Neubauer chamber. Isolated trypomastigotes were used in the phenotypic screening assays as well as the antiparasitic activity in 3D cardiac microtissues, recovery (washout), and drug combination assays.
Drug screening was performed against clinically relevant forms of T. cruzi (amastigotes and trypomastigotes). Trypomastigotes, Dm28c-Luc (1 × 10^6 parasites/well), were added to 96-well plates and incubated with pyrazole-thiadiazole derivatives or Bz (100–0.41 µM). After 24 h of treatment (37 °C), the viability of the parasites was analyzed by adding a D-Luciferin solution (300 µg/mL) and luminescence was measured in the Glomax microplate reader.

[2] = tested on: Intracellular amastigotes of T. cruzi (Dm28c-Luc); assay: microbe, parasite or virus in culture; type: cell-based, Trypanosoma cruzi; conditions: for IC50 / IC90: Trypanosoma cruzi; for IC90: read-out: Anti-T. cruzi Activity Intracellular Amastigotes IC90
Method: as §1
The activity of pyrazole-thiadiazole derivatives against intracellular amastigotes was evaluated in 24 h-T. cruzi infected Vero cell cultures (1.5 × 10^4 cells/well) at a 10:1 ratio. The cultures were washed and incubated with serial dilutions of the derivatives or Bz (100–0.41 µM). Drug treatment was carried out for 72 h at 37 °C and the parasite viability was determined by luminescence readout after D-Luciferin substrate addition (300 µg/mL). The reading was performed in the Glomax reader. The cell cultures incubated with the culture medium containing dimethylsulphoxide (DMSO; concentration ≤ 1%) were used as the […]. The concentrations required to inhibit parasite viability by 50% (IC50) and 90% (IC90) were calculated using Prism GraphPad software (version 8.2.1). The selectivity index (SI), which measures the window between cytotoxicity (CC50) and anti-T. cruzi activity (IC50), was calculated as CC50/IC50. A minimum of 3 independent assays in duplicate were performed.

[3] = Toxicity in mammalian cells (CellTiter Glo, 72 h); type: cell-based; conditions: African green monkey, Vero cells; 72 h, ATP levels; read-out: Cytotoxicity Vero Cells CC50
Method: Vero cell cultures grown in RPMI 1640 medium containing 10% fetal bovine serum (FBS) were cultured at 37 °C in a humidified atmosphere of 5% CO2 [82]. The cultures were used for drug screening assays and to obtain culture-derived trypomastigotes of T. cruzi.
Vero cells (1.5 ×10^4 cells/well), cultivated for 24 h at 37 °C in white 96-well plates with clear bottoms, were used to assess the toxicity of the pyrazole-thiadiazole derivatives (series 1 and 2). After washing, the cells were incubated for 72 h at 37 °C with different drug concentrations (500–1.95 μM). Cell viability was measured by adding 20 μL/well of CellTiter Glo reagent (Promega Corporation, Madison, WI, USA). This cell viability kit generates a luminescent signal proportional to the amount of ATP. The luminescence readout was performed using the Glomax Microplate Reader (Promega Corporation, Madison, WI, USA). Thus, the 50% cytotoxicity concentration (CC50), which reduces the cell viability by 50% (CC50), was calculated with Prism GraphPad software (version 8.2.1).

[4] = Vero, read-out: Intracellular Amastigotes pIC50 (converted)
[5] = Dm28c-Luc in Vero cells, 72 h treatment, mean ± SD, read-out: Anti-T. cruzi Activity Intracellular Amastigotes IC50
[6] = Dm28c-Luc in Vero cells, 72 h treatment, mean ± SD

SMILES | melting point | Trypomastigotes SI (CC50 of Vero cells/IC50 of trypomastigotes) [1] | IC50 [1] | IC90 [1] | Intracellular Amastigotes SI (CC50 of Vero cells/IC50 of intracellular amastigotes) [2] | IC50 [2, 4] | IC50 [2, 5] | IC90 [2, 6] | CC50 at 72 h [3]
Nc1nnc(-c2cnn(-c3cc(Cl)cc(Cl)c3)c2)s1 [1d, 5-Amino-2-(1-(3,5-dichlorophenyl)-1H-pyrazol-4-yl)-1,3,4-thiadiazole] | 283 to 285 °C | >5 | > 100 µM | > 100 µM | >8.29 | 58.9 µM | 58.7 ± 12.3 µM | > 70 µM | > 500 µM
Nc1nnc(-c2cnn(-c3cccc(Cl)c3)c2)s1 [1b, 5-Amino-2-(1-(3-chlorophenyl)-1H-pyrazol-4-yl)-1,3,4-thiadiazole] | 310 to 311 °C | >5 | > 100 µM | > 100 µM | >7.73 | 67.6 µM | 68.1 ± 2.99 µM | > 70 µM | > 500 µM
Nc1nnc(-c2cnn(-c3ccc([N+](=O)[O-])cc3)c2)s1 [1k, 5-Amino-2-(1-(4-nitrophenyl)-1H-pyrazol-4-yl)-1,3,4-thiadiazole] | 331 to 333 °C | >5 | > 100 µM | > 100 µM | >8.16 | 58.9 µM | 58.3 ± 12.8 µM | > 70 µM | > 500 µM
Nc1nnc(-c2cnn(-c3cccc(F)c3)c2N)s1 [2h, 5-Amino-2-(5-amino-1-(3-fluorophenyl)-1H-pyrazol-4-yl)-1,3,4-thiadiazole] | 285 to 286 °C | >5 | > 100 µM | > 100 µM | >7.14 | > 70.8 µM | > 70 µM | > 70 µM | > 500 µM
Nc1nnc(-c2cnn(-c3ccc(F)cc3)c2N)s1 [2g, 5-Amino-2-(5-amino-1-(4-fluorophenyl)-1H-pyrazol-4-yl)-1,3,4-thiadiazole] | 251 to 253 °C | >5 | > 100 µM | > 100 µM | >7.14 | > 70.8 µM | > 70 µM | > 70 µM | > 500 µM
COc1ccc(-n2cc(-c3nnc(N)s3)cn2)cc1 [1l, 5-Amino-2-(1-(4-methoxyphenyl)-1H-pyrazol-4-yl)-1,3,4-thiadiazole] | 298 to 300 °C | >9.43 | 53 ± 4.44 µM | > 100 µM | >19.08 | 24.5 µM | 24.5 ± 4.21 µM | > 70 µM | > 500 µM
Nc1nnc(-c2cnn(-c3ccccc3)c2N)s1 [2a, 5-Amino-2-(5-amino-1-phenyl-1H-pyrazol-4-yl)-1,3,4-thiadiazole] | 131 to 132 °C | >5 | > 100 µM | > 100 µM | >7.14 | > 70.8 µM | > 70 µM | > 70 µM | > 500 µM
Nc1nnc(-c2cnn(-c3cccc(Br)c3)c2)s1 [1j, 5-Amino-2-(1-(3-bromophenyl)-1H-pyrazol-4-yl)-1,3,4-thiadiazole] | 301 to 303 °C | >5 | > 100 µM | > 100 µM | >7.14 | > 70.8 µM | > 70 µM | > 70 µM | > 500 µM
Nc1nnc(-c2cnn(-c3ccc(Cl)c(Cl)c3)c2N)s1 [2e, 5-Amino-2-(5-amino-1-(3,4-dichlorophenyl)-1H-pyrazol-4-yl)-1,3,4-thiadiazole] | 258 to 260 °C | >6.88 | 72.6 ± 6.76 µM | > 100 µM | >13.73 | 33.9 µM | 33.6 ± 2.16 µM | 58.8 ± 8.26 µM | > 500 µM
COc1ccc(-n2ncc(-c3nnc(N)s3)c2N)cc1 [2l, 5-Amino-2-(5-amino-1-(4-methoxyphenyl)-1H-pyrazol-4-yl)-1,3,4-thiadiazole] | 303 to 305 °C | >100 | > 100 µM | > 100 µM | >7.14 | > 70.8 µM | > 70 µM | > 70 µM | > 500 µM
Nc1nnc(-c2cnn(-c3ccc(Cl)c(Cl)c3)c2)s1 [1e, 5-Amino-2-(1-(3,4-dichlorophenyl)-1H-pyrazol-4-yl)-1,3,4-thiadiazole] | 313 to 315 °C | >5 | > 100 µM | > 100 µM | >25.64 | 18.6 µM | 18.8 ± 2.28 µM | 40.4 ± 13.3 µM | > 500 µM
Nc1nnc(-c2cnn(-c3ccccc3)c2)s1 [1a, 5-Amino-2-(1-phenyl-1H-pyrazol-4-yl)-1,3,4-thiadiazole] | 289 to 291 °C | >5 | > 100 µM | > 100 µM | >7.49 | 69.2 µM | 68.6 ± 1.03 µM | > 70 µM | > 500 µM
Nc1nnc(-c2cnn(-c3cc(Cl)cc(Cl)c3)c2N)s1 [2d, 5-Amino-2-(5-amino-1-(3,5-dichlorophenyl)-1H-pyrazol-4-yl)-1,3,4-thiadiazole] | 299 to 300 °C | >5 | > 100 µM | > 100 µM | >7.14 | > 70.8 µM | > 70 µM | > 70 µM | > 500 µM
Nc1nnc(-c2cnn(-c3cccc(Br)c3)c2N)s1 [2j, 5-Amino-2-(5-amino-1-(3-bromophenyl)-1H-pyrazol-4-yl)-1,3,4-thiadiazole] | 245 to 246 °C | >5 | > 100 µM | > 100 µM | >7.14 | > 70.8 µM | > 70 µM | > 70 µM | > 500 µM
Nc1nnc(-c2cnn(-c3ccc(F)cc3)c2)s1 [1g, 5-Amino-2-(1-(4-fluorophenyl)-1H-pyrazol-4-yl)-1,3,4-thiadiazole] | 335 to 337 °C | >5 | > 100 µM | > 100 µM | >7.14 | > 70.8 µM | > 70 µM | > 70 µM | > 500 µM
